According to patent publication US20170273917A1, “NMDA RECEPTOR ANTAGONISTS FOR TREATING GAUCHER DISEASE” (Yeda Research and Development Co. Ltd., priority 2014, published 2017):

Legend:
rat hippocampal neurons = rat hippocampal neurons treated with CBE; high concentrations of glutamate; in vitro; cited from earlier work
GBA1 = biological target: T1, GBA1 (Mus musculus, UniProt P17439); assay: GBA1 activity assay in brain homogenates of treated mice; type: in vivo; details: mice treated for 10 days with CBE vs PBS; all strains tested; brains harvested P18
T1 construct: from tissue; host or cells: mouse brain (frozen half-brain homogenate) of inbred strains treated in vivo with PBS, CBE or CBE plus memantine
T1 sequence (P17439 20-515): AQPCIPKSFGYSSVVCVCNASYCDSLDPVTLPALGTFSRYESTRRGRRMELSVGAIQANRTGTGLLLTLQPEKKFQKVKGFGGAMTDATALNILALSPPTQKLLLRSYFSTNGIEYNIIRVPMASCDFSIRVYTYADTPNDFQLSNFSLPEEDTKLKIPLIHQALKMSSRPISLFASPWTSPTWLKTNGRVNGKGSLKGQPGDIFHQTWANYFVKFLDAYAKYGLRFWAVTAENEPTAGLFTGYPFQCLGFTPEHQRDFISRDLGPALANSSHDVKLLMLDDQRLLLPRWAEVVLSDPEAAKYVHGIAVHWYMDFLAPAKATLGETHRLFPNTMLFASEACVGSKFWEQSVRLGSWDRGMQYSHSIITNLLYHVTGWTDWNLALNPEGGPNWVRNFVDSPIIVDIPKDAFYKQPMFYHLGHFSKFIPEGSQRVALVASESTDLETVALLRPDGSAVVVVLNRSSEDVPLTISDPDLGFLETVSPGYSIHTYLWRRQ
Description: GBA1 activity assay—GBA1 activity was performed as previously described (Farfel-Becker et al. Hum Mol Genet. 2014; 23(4):843-54). Briefly, frozen half-brain samples were sonicated in Mcllvaine's buffer (0.1 M citric acid, pH 4.2, 0.2 M Na2HPO4, 29:21, vol:vol). Tissue homogenates containing 50 μg of protein were incubated at 37° C. with 8 μM C6-NBD-GlcCer (Avanti Polar Lipids, Alabaster, Ala., USA) in a final volume of 25 μl Mcllvaine's buffer for 30 minutes. Lipids were extracted and the lower phase separated by thin layer chromatography using chloroform:methanol:9.8 mM CaCl2 (60:35:8, vol:vol:vol) as the developing solvent. C6-NBD-ceramide was identified with an authentic standard using a Typhoon 9410 variable mode imager and bands were quantified by Image-QuantTL (GE Healthcare, Chalfont St Giles, UK).
To eliminate the possibility that the phenotypic differences observed in the different mouse strains were caused by differential CBE metabolism in the brain, GBA1 enzymatic activity in mice treated for 10 days with CBE or PBS (control) was measured. […] Overall, the remaining GBA1 activity was 5-10% of the controls (FIG. 3A). There was no correlation between GBA1 activity in the brain and life spans neither in the PBS(R^2=0.126, data not shown) nor CBE conditions (R^2=0.0581, FIG. 3B). In addition, no correlation was found between inhibition of GBA1 activity and life span when evaluated according to strains (R^2=0.0085, data not shown).

inbred mouse strains = assay: Survival of inbred mouse strains injected daily with CBE (GD induction); type: in vivo; details: for Average survival time: CBE 25 mg/kg/day i.p. daily from P8
From the text: Mice—Pure inbred mouse strains were obtained from the Jackson laboratories (USA), Harlan UK and Harlan Israel. Specifically, BTBR T^+ Itpr3^tf/J C3H/HeJ, DBA/2J, MRL/MpJ, WSB/EiJ, MOLF/Ei, PWD/PhJ, KK/HiJ, BPL/1J, I/LnJ, BPN/3J, and LP/J were obtained from Jackson; A/J, AKR/J, NZW/LacJ, 129S1/SvImJ were obtained from Harlan laboratories in the UK; and C57BL/6JOlaHsd, BALB/cJ and FVB/NJ were obtained from the Harlan laboratories in Israel. Gba^flox/flox; nestin-Cre mice, a mouse model of GD were generated as described in Vitner et al. Nature Medicine (2014) 20: 204-208; and Enquist, I. B. et al. Proc. Natl. Acad. Sci. USA (2007) 104: 17483-17488. These mice recapitulate many features of human nGD, although their Gba1 deficiency is restricted to neural and macroglial lineages. Mice were maintained under specific pathogen-free conditions and handled according to protocols approved by the Weizmann Institute Animal Care Committee according to international guidelines.
CBE injections—Conduritol-β-epoxide (CBE) was obtained from Calbiochem Millipore (Darmstadt, Germany). CBE at a dose of 25 mg or 50 mg per kg body weight per day or PBS (control) were administered i.p. to mice daily starting from postnatal day 8 (P8) of age.
To study the potential of different mouse stains to serve as a reliable model for Type 2/3 GD, 15 different inbred mouse strains were chosen. CBE has been used to induce GD in mice for many years (Mumford et al., 1975), and it was used to generate the first animal model for GD disease. CBE is water soluble and crosses the blood brain barrier. The 15 mice strains chosen have diverse phylogenetic origins and their SNP profile is freely available (FIG. 1A). Mice were daily injected i.p. with 25 mg/kg/day of CBE starting on postnatal day 8 and for the rest of their lives (Vitner et al., 2014). […] The strains could be divided into two groups: mice in the first group were very homogeneous in their behavior; they developed a very aggressive disease with a short life span. The second group of strains presented a much longer life expectancy with a broader spectrum of phenotypes.

[1] = system: motor coordination of CBE-treated mice; assay: Locomotor testing by the hanging wire test; type: in vivo, mouse; details: short living CBE-treated strains; weekly from P21 for 2 months
From the text: Locomotor testing—Locomotor coordination was weekly evaluated in the treated strains by the hanging wire test, a validated test for LSD mouse models (Alvarez et al. 2008). Briefly, the mouse was placed with forepaws at a center of a horizontal bar (3 mm diameter; 35 mm long).
To further characterize the effect of CBE treatment on the different strains, motor behavior was followed weekly using the hanging wire test, starting at postnatal day 21 for a period of 2 months. The hanging wire test evaluates coordination and locomotor function, wherein a high score means better coordination. […] Of note, strains PWD/PhJ and WSB/EiJ were excluded in the motor behavior analysis due to their wild behavior.

O[C@H]1[C@H](O)[C@@H](O)[C@@H]2O[C@@H]2[C@@H]1O [CBE, Conduritol-β-epoxide]
sensitivity of neurons to glutamate toxicity (rat hippocampal neurons): more sensitive to the toxic effects of high concentrations of glutamate | remaining cerebral GBA1 activity (GBA1): 5-10 % of the controls | Average survival time (inbred mouse strains; 129S1/SvImJ mice): 108 days | Average survival time (inbred mouse strains; A/J mice): 23 days | Average survival time (inbred mouse strains; AKR/J mice): 24 days | average mortality on day (inbred mouse strains; AKR/J mice, CBE-treated): 24 days | Average survival time (inbred mouse strains; BALB/cJ mice): 130 days | Average survival time (inbred mouse strains; BTBR T+ITPR3TF/J mice): 199 days | 100% mortality on day (inbred mouse strains; BTBR T+ITPR3TF/J mice, CBE-treated): 199 days | Average survival time (inbred mouse strains; C3H/HeJ mice): 24 days | Average survival time (inbred mouse strains; C57BL6/JolaHsd mice): 29 days | Average survival time (inbred mouse strains; DBA/2J mice): 26 days | Average survival time (inbred mouse strains; FVB/NJ mice): 106 days | Average survival time (inbred mouse strains; KK/HlJ mice): 143 days | Average survival time (inbred mouse strains; MOLF/Ei mice): 41 days | Average survival time (inbred mouse strains; MRL/MpJ mice): 30 days | Average survival time (inbred mouse strains; NZW/LacJ mice): 84 days | Average survival time (inbred mouse strains; PWD/Ph mice): 119 days | Average survival time (inbred mouse strains; WSB/EiJ mice): 38 days | motor behavior (hanging wire test) [1]: poor motor behaviors starting at very early time points
